In this assay the target is human Cereblon WT GST-tagged protein (Homo sapiens (Human), UniProt Q96SW2). Put plainly: CRBN-binding affinity, HTRF (CEREBLON BINDING kit). As for the experimental part:
The CEREBLON BINDING kits (specification: 10,000 tests; product number: Catalog #64BDCRBNPEH; CISBIO company) was used to determine the CRBN binding ability of the compounds to be tested through a HTRF method (homogeneous time-resolved fluorescence). The specific methods are as follows: • 1. […] Then, 2.5 μL of human Cereblon WT GST-tagged protein solution was added to each well. Finally, 5 μL of the thoroughly mixed Thalidomide-Re reagent and GST Eu antibody working solution were added to each of the aforementioned wells. […] The blank control wells were sequentially added with 2.5 μL of diluent #9 (1×) solution, 2.5 μL of PROTAC binding buffer, and 5 μL of thoroughly mixed Thalidomide-Re reagent and GST Eu antibody working solution. • 4.
The corresponding CRBN binding inhibition rate was calculated using the following method: […]
A general note: Time-resolved FRET reads energy transfer from a long-lived donor to a nearby acceptor.
human Cereblon WT GST-tagged protein, sequence (Q96SW2 whole entry): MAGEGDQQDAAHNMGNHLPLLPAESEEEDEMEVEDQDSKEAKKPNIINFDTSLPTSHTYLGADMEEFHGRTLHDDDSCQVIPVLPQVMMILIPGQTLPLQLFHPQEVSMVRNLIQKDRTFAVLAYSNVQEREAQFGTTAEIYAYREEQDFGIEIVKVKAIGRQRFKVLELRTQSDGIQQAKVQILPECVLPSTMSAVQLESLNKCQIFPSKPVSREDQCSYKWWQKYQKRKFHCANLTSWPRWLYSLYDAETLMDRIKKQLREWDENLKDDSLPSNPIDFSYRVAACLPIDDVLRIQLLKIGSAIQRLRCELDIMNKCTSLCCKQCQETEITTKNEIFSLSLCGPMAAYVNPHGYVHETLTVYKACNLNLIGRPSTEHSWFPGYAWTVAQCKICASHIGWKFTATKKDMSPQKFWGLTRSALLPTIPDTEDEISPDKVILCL
The IC50 is the midpoint of a concentration-inhibition curve. A higher IC50 goes with weaker potency in that assay. As for `CC1(C)CCC(CN2CC3CC(C2)N3Cc2cc3c(cc2F)C(=O)N(C2CCC(=O)NC2=O)C3)=C(c2ccc(Cl)cc2)C1` (centres unmarked) [GT-05367, 3-(5-((3-((4′-chloro-5,5-dimethyl-3,4,5,6-tetrahydro-[1,1′-biphenyl]-2-yl)methyl)-3,6-diazabicyclo[3.1.1]heptan-6-yl)methyl)-6-fluoro-1-oxoisoindolin-2-yl)piperidine-2,6-dione], the IC50 stood at 400 nM.

Regarding `O=C1CCC(N2C(=O)c3ccc(N4CC5CC(C4)N5Cc4ccccc4-c4ccc(Cl)cc4)cc3C2=O)C(=O)N1` (centres unmarked) [GT-05373, 5-(6-((4′-chloro-[1,1′-biphenyl]-2-yl)methyl)-3,6-diazabicyclo[3.1.1]heptan-3-yl)-2-(2,6-dioxopiperidin-3-yl)isoindoline-1,3-dione], the IC50 was found to be 1490 nM.

The molecule `O=C1CCC(N2C(=O)c3ccc(N4CC5CCC4CN5Cc4ccccc4-c4ccc(Cl)cc4)cc3C2=O)C(=O)N1` (centres unmarked) [GT-05374, 5-(5-((4′-chloro-[1,1′-biphenyl]-2-yl)methyl)-2,5-diazabicyclo[2.2.2]octan-2-yl)-2-(2,6-dioxopiperidin-3-yl)isoindoline-1,3-dione] returned an IC50 of 520 nM.

`CC1(C)CCC(CN2C3CC2CN(c2ccc4c(c2)C(=O)N(C2CCC(=O)NC2=O)C4=O)C3)=C(c2ccc(Cl)cc2)C1` (centres unmarked) [GT-05378, 5-(6-((4′-chloro-5,5-dimethyl-3,4,5,6-tetrahydro-[1,1′-biphenyl]-2-yl)methyl)-3,6-diazabicyclo[3.1.1]heptan-3-yl)-2-(2,6-dioxopiperidin-3-yl)isoindoline-1,3-dione] returned an IC50 of 1770 nM. Compared with the last molecule, the IC50 is about 3.4-fold higher.

The molecule `CC1(C)CCC(CN2CC3CCC2CN3c2ccc3c(c2)C(=O)N(C2CCC(=O)NC2=O)C3=O)=C(c2ccc(Cl)cc2)C1` (centres unmarked) [GT-05379, 5-(5-((4′-chloro-5,5-dimethyl-3,4,5,6-tetrahydro-[1,1′-biphenyl]-2-yl)methyl)-2,5-diazabicyclo[2.2.2]octan-2-yl)-2-(2,6-dioxopiperidin-3-yl)isoindoline-1,3-dione] gave an IC50 of 110 nM.

For the molecule `CC1(C)CCC(CN2CC3CC(C2)N3c2ccc3c(c2)C(=O)N(C2CCC(=O)NC2=O)C3=O)=C(c2ccc(F)cc2)C1` (centres unmarked) [GT-05386, 2-(2,6-dioxopiperidin-3-yl)-5-(3-((4′-fluoro-5,5-dimethyl-3,4,5,6-tetrahydro-[1,1′-biphenyl]-2-yl)methyl)-3,6-diazabicyclo[3.1.1]heptan-6-yl)isoindoline-1,3-dione], the half-inhibitory concentration (IC50) came to 1460 nM. Against the preceding molecule, the IC50 is about 13-fold higher.

With `CC1(C)CCC(CN2C3CC2CN(c2ccc4c(c2)C(=O)N(C2CCC(=O)NC2=O)C4=O)C3)=C(c2ccc(F)cc2)C1` (centres unmarked) [GT-05387, 2-(2,6-dioxopiperidin-3-yl)-5-(6-((4′-fluoro-5,5-dimethyl-3,4,5,6-tetrahydro-[1,1′-biphenyl]-2-yl)methyl)-3,6-diazabicyclo[3.1.1]heptan-3-yl)isoindoline-1,3-dione], the IC50 amounted to 810 nM. This IC50 lies about 1.8-fold lower than the previous one.

`CC1(C)CCC(CN2CC3CCC2CN3c2ccc3c(c2)C(=O)N(C2CCC(=O)NC2=O)C3=O)=C(c2ccc(F)cc2)C1` (centres unmarked) [GT-05388, 2-(2,6-dioxopiperidin-3-yl)-5-(5-((4′-fluoro-5,5-dimethyl-3,4,5,6-tetrahydro-[1,1′-biphenyl]-2-yl)methyl)-2,5-diazabicyclo[2.2.2]octan-2-yl)isoindoline-1,3-dione]: the IC50 worked out at 410 nM.

Turning to `CC1(C)CCC(CN2CCN(Cc3cc(F)c4c(c3)CN(C3CCC(=O)NC3=O)C4=O)CC2)=C(c2ccc(F)cc2)C1` (centres unmarked) [GT-05392, 3-(7-fluoro-5-((4-((4′-fluoro-5,5-dimethyl-3,4,5,6-tetrahydro-[1,1′-biphenyl]-2-yl)methyl)piperazin-1-yl)methyl)-1-oxoisoindolin-2-yl)piperidine-2,6-dione], the IC50 was 440 nM.

Consider `CC1(C)CCC(CN2CCN(Cc3cccc4c3CN(C3CCC(=O)NC3=O)C4=O)CC2)=C(c2ccc(F)cc2)C1` (centres unmarked) [GT-05393, 3-(4-((4-((4′-fluoro-5,5-dimethyl-3,4,5,6-tetrahydro-[1,1′-biphenyl]-2-yl)methyl)piperazin-1-yl)methyl)-1-oxoisoindolin-2-yl)piperidine-2,6-dione], for which the IC50 came out at 340 nM.

In the case of `CC1(C)CCC(CN2CCN(Cc3ccc4c(c3)C(=O)N(C3CCC(=O)NC3=O)C4)CC2)=C(c2ccc(F)cc2)C1` (centres unmarked) [GT-05394, 3-(6-((4-((4′-fluoro-5,5-dimethyl-3,4,5,6-tetrahydro-[1,1′-biphenyl]-2-yl)methyl)piperazin-1-yl)methyl)-1-oxoisoindolin-2-yl)piperidine-2,6-dione], the IC50 amounted to 490 nM.

As for `CC1(C)CCC(CN2CC3CN(Cc4ccc5c(c4)CN(C4CCC(=O)NC4=O)C5=O)CC3C2)=C(c2ccc(F)cc2)C1` (centres unmarked) [GT-05398, 3-(5-((5-((4′-fluoro-5,5-dimethyl-3,4,5,6-tetrahydro-[1,1′-biphenyl]-2-yl)methyl)hexahydropyrrolo[3,4-c]pyrrol-2(1H)-yl)methyl)-1-oxoisoindolin-2-yl)piperidine-2,6-dione], the IC50 was determined as 1050 nM.

In turn, `CC1(C)CCC(C(=O)N2CC3CN(Cc4ccc5c(c4)CN(C4CCC(=O)NC4=O)C5=O)CC3C2)=C(c2ccc(F)cc2)C1` (centres unmarked) [GT-05405, 3-(5-((5-(4′-fluoro-5,5-dimethyl-3,4,5,6-tetrahydro-[1,1′-biphenyl]-2-carbonyl)hexahydropyrrolo[3,4-c]pyrrol-2(1H)-yl)methyl)-1-oxoisoindolin-2-yl)piperidine-2,6-dione] registered an IC50 of 500 nM.

On to `CC1(C)CCC(C(=O)N2CCN(Nc3ccc4c(c3)CN(C3CCC(=O)NC3=O)C4=O)CC2)=C(c2ccc(Cl)cc2)C1` (centres unmarked) [GT-05417, 3-(5-((4-(4′-chloro-5,5-dimethyl-3,4,5,6-tetrahydro-[1,1′-biphenyl]-2-carbonyl)piperazin-1-yl)amino)-1-oxoisoindolin-2-yl)piperidine-2,6-dione], for which the IC50 was 1480 nM.

Turning to `CC1(C)CCC(C(=O)N2CCC(Cc3ccc4c(c3)CN(C3CCC(=O)NC3=O)C4=O)CC2)=C(c2ccc(Cl)cc2)C1` (centres unmarked) [GT-05418, 3-(5-((1-(4′-chloro-5,5-dimethyl-3,4,5,6-tetrahydro-[1,1′-biphenyl]-2-carbonyl)piperidin-4-yl)methyl)-1-oxoisoindolin-2-yl)piperidine-2,6-dione], the IC50 is 540 nM.

Molecule `CC1(C)CCC(C(=O)N2CC(Cc3ccc4c(c3)CN(C3CCC(=O)NC3=O)C4=O)C2)=C(c2ccc(Cl)cc2)C1` (centres unmarked) [GT-05419, 3-(5-((1-(4′-chloro-5,5-dimethyl-3,4,5,6-tetrahydro-[1,1′-biphenyl]-2-carbonyl)azetidin-3-yl)methyl)-1-oxoisoindolin-2-yl)piperidine-2,6-dione] came in with an IC50 of 720 nM.

`CC1(C)CCC(CN2CC(O)(C(O)c3ccc4c(c3)CN(C3CCC(=O)NC3=O)C4=O)C2)=C(c2ccc(Cl)cc2)C1` (centres unmarked) [GT-05427, 3-(5-((1-((4′-chloro-5,5-dimethyl-3,4,5,6-tetrahydro-[1,1′-biphenyl]-2-yl)methyl)-3-hydroxyazetidin-3-yl)(hydroxy)methyl)-1-oxoisoindolin-2-yl)piperidine-2,6-dione] registered an IC50 of 950 nM.

Turning to `CC1(C)CCC(CN2CC(Cc3ccc4c(c3)CN(C3CCC(=O)NC3=O)C4=O)C2)=C(c2ccc(Cl)cc2)C1` (centres unmarked) [GT-05428, 3-(5-((1-((4′-chloro-5,5-dimethyl-3,4,5,6-tetrahydro-[1,1′-biphenyl]-2-yl)methyl)azetidin-3-yl)methyl)-1-oxoisoindolin-2-yl)piperidine-2,6-dione], the IC50 stood at 1080 nM.

With `CC1(C)CCC(CN2C3CCC2CN(c2ccc4c(c2)CN(C2CCC(=O)NC2=O)C4=O)C3)=C(c2ccc(Cl)cc2)C1` (centres unmarked) [GT-05429, 3-(5-(8-((4′-chloro-5,5-dimethyl-3,4,5,6-tetrahydro-[1,1′-biphenyl]-2-yl)methyl)-3,8-diazabicyclo[3.2.1]octan-3-yl)-1-oxoisoindolin-2-yl)piperidine-2,6-dione], the IC50 was found to be 1490 nM.

`CC1(C)CCC(CN2CC3CC(C2)N3C(=O)c2ccc3c(c2)CN(C2CCC(=O)NC2=O)C3=O)=C(c2ccc(Cl)cc2)C1` (centres unmarked) [GT-05440, 3-(5-(3-((4′-chloro-5,5-dimethyl-3,4,5,6-tetrahydro-[1,1′-biphenyl]-2-yl)methyl)-3,6-diazabicyclo[3.1.1]heptane-6-carbonyl)-1-oxoisoindolin-2-yl)piperidine-2,6-dione]: the IC50 was found to be 940 nM.

Turning to `CC1(C)CCC(CN2C[C@H]3C[C@@H]2CN3C(=O)c2ccc3c(c2)CN(C2CCC(=O)NC2=O)C3=O)=C(c2ccc(Cl)cc2)C1` (stereo partly drawn) [GT-05441, 3-(5-((1R,4R)-5-((4′-chloro-5,5-dimethyl-3,4,5,6-tetrahydro-[1,1′-biphenyl]-2-yl)methyl)-2,5-diazabicyclo[2.2.1]heptane-2-carbonyl)-1-oxoisoindolin-2-yl)piperidine-2,6-dione], the half-maximal inhibitory concentration (IC50) stood at 1570 nM.

In turn, `CC1(C)CCC(CN2C[C@@H]3C[C@H]2CN3C(=O)c2ccc3c(c2)CN(C2CCC(=O)NC2=O)C3=O)=C(c2ccc(Cl)cc2)C1` (stereo partly drawn) [GT-05442, 3-(5-((1S,4S)-5-((4′-chloro-5,5-dimethyl-3,4,5,6-tetrahydro-[1,1′-biphenyl]-2-yl)methyl)-2,5-diazabicyclo[2.2.1]heptane-2-carbonyl)-1-oxoisoindolin-2-yl)piperidine-2,6-dione] yielded an IC50 of 670 nM.

Regarding `CC1(C)CCC(CN2CCN(C(=O)c3ccc4c(c3)CN(C3CCC(=O)NC3=O)C4=O)CC2)=C(c2ccc(Cl)cc2)C1` (centres unmarked) [GT-05445, 3-(5-(4-((4′-chloro-5,5-dimethyl-3,4,5,6-tetrahydro-[1,1′-biphenyl]-2-yl)methyl)piperazine-1-carbonyl)-1-oxoisoindolin-2-yl)piperidine-2,6-dione], the IC50 was determined as 1910 nM.

The record behind these values is patent US20260028326A1, “COMPOUND BASED ON ISOINDOLINE-SUBSTITUTED GLUTARIMIDE BACKBONE AND USE THEREOF” (GLUETACS THERAPEUTICS (SHANGHAI) CO., LTD., priority 2022, published 2026).
